Measurements taken from USRE38132E1, “Phenylpyrrolidines, phenylimidazolidines,3-phenyl-1,3-oxizolidines and 3-phenyl-1,3-thiazolidines and their use in the treatment of inflammatory disease” (Boehringer Ingelheim Pharmaceuticals, Inc., priority 1997, dated 2003).
Read-outs that look alike come from different tables or passages of the source.

What was measured:
[1] = target: T1, interaction of ICAM-1 with the Leukointegrin CD18/CD11a (LFA-1) (Homo sapiens, UniProt P05107+P20701); experiment: Assay to determine inhibition of LFA-1 binding to ICAM-1 (immunopurified LFA-1 on plate-bound sICAM-1, ELISA readout)
T1 construct: endogenous in cells; sICAM-1: made in house, secreted from transfected CHO DUX cells

[2] = tested on: cell bound form of LFA-1 (CD18, CD11a) with ICAM-1, SKW3 cells; experiment: Inhibition of SKW3 cell binding to ICAM-1 (PMA-stimulated); assay type: cell-based, human; details: read-out: Assay to Detect SKW3 Cells Binding to ICAM IC50
Description: (§1) Assay to Determine Inhibition of SKW3 cell binding to ICAM-1 vs. Binding to Fibronectin
(§2) This assay is used to test the selective ability of a test compound to antagonize the interaction of a cell bound form of LFA-1 with ICAM-1. The assay uses a human T cell line, SKW3 cells which express CD18, CD11a and other integrins not related to CD18, CD11a and which can be “activated” by phorbol esters. Phorbol esters enhance the affinity of CD18, CD11a for ICAM-1.
(§3) This same lymphocyte line, SKW3, also adheres to fibronectin in the presence of phorbol esters. This adhesion is mediated by membrane proteins independent of the LFA-1/ICAM-1 interaction. The SKW3 cells express another integrin, VLA4, which is the receptor for fibronectin. Therefore, as a preliminary indication of the selectivity of a test compounds to interfere with Leukointegrin/CAM interactions but not other integrin-ligand binding events, a compound can be tested for its ability to antagonize cell bound fibronectin receptor in its interaction with purified fibronectin. Compounds that inhibit this fibronectin adhesion are not specific antagonists of the CD18, CD11a/ICAM-1 binding.
(§4) Description of Assay Protocol:
(§5) Ninety-six well plates are coated with either sICAM-1(40 μg/mL) or fibronectin (100 μg/mL) in Diluting buffer for 1 h at room temperature. Added to the wells are 100 μL of the appropriately diluted test compound or 100 μL of RPMI with 15% fetal bovine serum as a control. SKW3 cells, which express CD18, CD11a and VLA4 (Dustin, M.; et al., J. Exp. Med. 1987, 165, 672-692) are washed and suspended to a concentration of 10^6 cells/mL in RPMI with 15% fetal bovine serum. Immediately before adding the cells to the wells, cells are stimulated with the phorbol ester 12-myristate 13-acetate (PMA) for a final concentration of […]. 100 μL of cells are then added to the wells resulting in a final concentration of […]. The plates are incubated for 2 h at 37° C. Unbound or loosely bound cells are gently washed away with RPMI.
(§6) Data are reported as the concentration or concentration range (in μM) at which 50% of binding is inhibited.

[3] = tested on: SKW3 cells
[4] = tested on: cell bound fibronectin receptor (VLA4) with fibronectin, SKW3 cells; experiment: Inhibition of SKW3 cell binding to fibronectin (selectivity counter-assay); assay type: cell-based, human; details: for IC50: read-out: Assay to Detect SKW3 Cells Binding to FIBRONECTIN IC50
Description: as §1, §2, §3, §4, §5, §6

[5] = values marked e approximated from incomplete dose-response curve
[6] = values marked c: no inhibition observed up to highest dose
[7] = No inh = no inhibition observed up to highest dose, exact quantification not always possible due to intrinsic toxicity
[8] = Homo sapiens, SKW3, values marked c: no inhibition observed up to highest dose

T1 sequence (P20701 26-1170): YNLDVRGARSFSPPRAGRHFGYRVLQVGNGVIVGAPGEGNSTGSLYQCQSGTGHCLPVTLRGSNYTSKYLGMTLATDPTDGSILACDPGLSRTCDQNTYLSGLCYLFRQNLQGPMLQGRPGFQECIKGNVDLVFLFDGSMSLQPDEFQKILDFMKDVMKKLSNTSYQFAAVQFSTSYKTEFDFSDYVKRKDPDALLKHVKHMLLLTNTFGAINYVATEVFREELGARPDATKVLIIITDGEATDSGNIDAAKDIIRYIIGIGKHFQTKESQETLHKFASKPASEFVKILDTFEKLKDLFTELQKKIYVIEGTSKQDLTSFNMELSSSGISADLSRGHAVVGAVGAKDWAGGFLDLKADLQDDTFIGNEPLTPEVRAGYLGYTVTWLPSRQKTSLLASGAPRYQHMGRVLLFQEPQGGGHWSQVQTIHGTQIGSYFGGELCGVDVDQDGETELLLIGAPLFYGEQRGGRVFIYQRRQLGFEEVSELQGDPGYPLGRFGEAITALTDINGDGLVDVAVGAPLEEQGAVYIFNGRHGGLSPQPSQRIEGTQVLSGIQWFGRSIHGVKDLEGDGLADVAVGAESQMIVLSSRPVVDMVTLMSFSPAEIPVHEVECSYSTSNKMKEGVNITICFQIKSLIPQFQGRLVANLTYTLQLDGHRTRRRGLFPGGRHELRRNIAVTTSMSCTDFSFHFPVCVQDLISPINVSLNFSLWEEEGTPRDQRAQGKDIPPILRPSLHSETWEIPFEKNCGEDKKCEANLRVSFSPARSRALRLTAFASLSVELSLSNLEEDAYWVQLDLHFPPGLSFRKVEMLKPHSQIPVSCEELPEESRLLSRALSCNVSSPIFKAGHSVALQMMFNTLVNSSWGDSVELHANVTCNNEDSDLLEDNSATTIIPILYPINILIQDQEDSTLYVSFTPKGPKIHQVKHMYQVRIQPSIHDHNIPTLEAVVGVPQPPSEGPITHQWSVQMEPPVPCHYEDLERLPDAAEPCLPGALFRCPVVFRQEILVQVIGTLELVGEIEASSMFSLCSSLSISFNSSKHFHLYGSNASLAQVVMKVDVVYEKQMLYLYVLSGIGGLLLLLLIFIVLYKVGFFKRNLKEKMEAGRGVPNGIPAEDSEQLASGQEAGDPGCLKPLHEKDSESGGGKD
T1 sequence (P05107 23-769): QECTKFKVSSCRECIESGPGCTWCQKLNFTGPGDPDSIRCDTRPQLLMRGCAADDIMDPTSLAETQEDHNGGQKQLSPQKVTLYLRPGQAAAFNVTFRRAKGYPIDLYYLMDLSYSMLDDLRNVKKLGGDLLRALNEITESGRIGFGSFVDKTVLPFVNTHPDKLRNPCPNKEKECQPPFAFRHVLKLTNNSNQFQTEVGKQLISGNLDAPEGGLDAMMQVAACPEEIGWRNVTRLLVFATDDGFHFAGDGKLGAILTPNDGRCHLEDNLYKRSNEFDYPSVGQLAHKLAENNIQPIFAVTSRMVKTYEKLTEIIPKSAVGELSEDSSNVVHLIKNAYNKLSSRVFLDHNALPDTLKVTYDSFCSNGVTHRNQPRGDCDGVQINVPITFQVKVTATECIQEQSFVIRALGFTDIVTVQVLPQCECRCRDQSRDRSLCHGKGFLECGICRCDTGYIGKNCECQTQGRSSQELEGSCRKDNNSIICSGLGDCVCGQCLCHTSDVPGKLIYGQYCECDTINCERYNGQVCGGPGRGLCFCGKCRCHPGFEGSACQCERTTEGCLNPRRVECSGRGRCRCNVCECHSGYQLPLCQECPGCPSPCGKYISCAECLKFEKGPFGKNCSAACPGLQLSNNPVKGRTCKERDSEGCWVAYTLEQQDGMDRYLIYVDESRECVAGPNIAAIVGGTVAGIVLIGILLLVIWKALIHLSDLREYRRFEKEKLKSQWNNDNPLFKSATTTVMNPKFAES

Row | Structure (SMILES) | Kd [1, 5] [µM] | IC50 [2, 6] [µM] | Cellular Toxicity Assay MTT LD50 [3] [µM] | IC50 [4, 6] [µM] | Kd [1] [µM] | IC50 ([2]; Homo sapiens, SKW3) [µM] | Assay to Detect SKW3 Cells Binding to FIBRONECTIN IC50 [4, 7] | IC50 [2, 8] [µM] | Assay to Detect SKW3 Cells Binding to FIBRONECTIN IC50 [4, 6] | IC50 [4, 8] [µM] | IC50 ([4]; Homo sapiens, SKW3, No inh = no inhibition observed up to highest dose, exact quantification not always possible due to intrinsic toxicity) [µM]
1 | CN1C(=O)N(c2cc(C(F)(F)F)cc(C(F)(F)F)c2)C(=O)C1(C)Cc1ccccc1 (centres unmarked) [Example 88] | 0.41 | 19 to 38 | 250 to 500 | > 75 | – | – | – | – | – | – | –
2 | C[C@@]1(Cc2ccc(Br)cc2)C(=O)N(c2cc(Cl)cc(Cl)c2)C(=O)N1CCCCCS(=O)(=O)O [Example 251] | – | – | 100 to 200 | – | 0.06 | < 0.5 | No inh^c | – | – | – | –
3 | O=C1NC(Cc2ccc3ccccc3c2)C(=O)N1c1cc(Cl)cc(Cl)c1 (centres unmarked) [Example 17] | 3.01 | – | 125 | – | – | – | – | > 63 | No inh^c | – | –
4 | CN1C(=O)N(c2cc(Cl)cc(Cl)c2)C(=O)C1Cc1ccccc1 (centres unmarked) [Example 82] | 2.1 | – | 250 to 500 | – | – | – | – | 63 to 125 | – | > 250 | –
5 | O=C1N[C@@H](Cc2ccccc2)C(=O)N1c1cc(Cl)cc(Cl)c1 [Example 14] | 12.7 | – | 125 to 250 | – | – | – | – | 63 to 125 | – | > 125 | –
6 | C[C@@H](c1ccccc1)[C@H]1NC(=O)N(c2cc(Cl)cc(Cl)c2)C1=O [Example 22] | 0.4 | – | 125 to 250 | – | – | – | – | < 16 | No inh^c | – | –
7 | C[C@H](c1ccccc1)[C@@H]1C(=O)N(c2cc(Cl)cc(Cl)c2)C(=O)N1C [Example 85] | 0.72 | – | >500 | – | – | – | – | 19 to 38 | – | > 75 | –
8 | C[C@@]1(Cc2ccccc2)NC(=O)N(c2cc(Cl)cc(Cl)c2)C1=O [Example 2] | 14.4 | – | 125 to 250 | – | – | – | – | > 100 | – | > 100 | –
9 | CC1(Cc2c[nH]c3ccccc23)NC(=O)N(c2cc(Cl)cc(Cl)c2)C1=O (centres unmarked) [Example 28] | 2.59 | – | 100 to 200 | – | – | – | – | – | No inh^c | – | –
10 | CC(=O)N1C(=O)N(c2cc(Cl)cc(Cl)c2)C(=O)C1(C)Cc1ccccc1 (centres unmarked) [Example 96] | 0.46 | – | 100 to 200 | – | – | – | – | 50 | No inh^c | – | –
11 | O=C1NC(Cc2ccc([N+](=O)[O-])cc2)C(=O)N1c1cc(Cl)cc(Cl)c1 (centres unmarked) [Example 24] | 0.85 | > 60 | >400 | – | – | – | – | – | No inh^c | – | –
12 | C[C@H](c1ccccc1)[C@]1(C)C(=O)N(c2cc(Cl)cc(Cl)c2)C(=O)N1C [Example 269] | – | – | 250 to 500 | – | 0.29 | 25 | No inh^c | – | – | – | –
13 | C[C@@H](c1ccccc1)[C@@H]1C(=O)N(c2cc(Cl)cc(Cl)c2)C(=O)N1C [Example 86] | 0.53 | – | >500 | – | – | – | – | 19 to 38 | – | > 75 | –
14 | O=C1CC(Cc2ccccc2)C(=O)N1c1cc(Cl)cc(Cl)c1 (centres unmarked) [Example 76] | 2.34 | – | >500 | – | – | – | – | 150 to 300 | – | > 300 | –
15 | O=C1NC(Cc2ccccc2)C(=O)N1c1cc(Cl)cc(Cl)c1 (centres unmarked) [Example 20] | 1.76 | – | 125 to 250 | – | – | – | – | 16 | – | 63 to 125 | –
16 | CN1C(=O)N(c2cc(Cl)cc(Cl)c2)C(=O)[C@@]1(C)Cc1ccc(-c2ccncc2)cc1 [Example 189] | 0.19 | – | 63 | – | – | – | – | 0.6 to 1.2 | No inh^c | – | –
17 | CCCN1C(=O)N(c2cc(Cl)cc(Cl)c2)C(=O)C1(C)Cc1ccccc1 (centres unmarked) [Example 90] | 0.73 | – | >500 | – | – | – | – | 50 to 100 | No inh^c | – | –
18 | C[C@@]1(Cc2ccc(Br)cc2)C(=O)N(c2cc(Cl)cc(Cl)c2)C(=O)N1CCCCN [Example 241] | – | – | 9 to 18 | – | 0.1 | 0.8 to 1.6 | – | – | – | – | 13
19 | CN1C(=O)N(c2cc(Cl)cc(Cl)c2)C(=O)C1(C)Cc1ccc(Br)cc1 (centres unmarked) [Example 138] | – | – | 250 to 500 | – | – | – | – | 6 | No inh^c | – | –
20 | CN1C(=O)N(c2cc(Cl)cc(Cl)c2)C(=O)[C@]1(C)Cc1ccc(Br)cc1 [Example 272] | – | – | 250 to 500 | – | – | 50 to 100 | No inh^c | – | – | – | –
21 | C[C@@]1(Cc2ccc([N+](=O)[O-])cc2)C(=O)N(c2cc(Cl)cc(Cl)c2)C(=O)N1S(C)(=O)=O [Example 136] | 0.19 | – | 150 to 300 | – | – | – | – | 0.6 to 1 | No inh^c | – | –
22 | C[C@@]1(Cc2ccc(Br)cc2)C(=O)N(c2cc(Cl)cc(Cl)c2)C(=O)N1C(=O)CO [Example 231] | – | – | 40 to 80 | – | 0.27 | 2 to 5 | No inh^c | – | – | – | –
23 | CC1(Cc2ccccc2)NC(=O)N(c2cc(C(F)(F)F)cc(C(F)(F)F)c2)C1=O (centres unmarked) [Example 16] | 0.85 | – | 63 to 125 | – | – | – | – | 19 to 38 | – | > 75 | –
24 | C[C@H](c1ccccc1)[C@H]1NC(=O)N(c2cc(Cl)cc(Cl)c2)C1=O [Example 21] | 0.69 | – | 125 to 250 | – | – | – | – | < 16 | – | 125 to 250 | –
25 | O=C1NC(Cc2ccc([N+](=O)[O-])cc2)C(=O)N1c1cc(Cl)cc(Cl)c1 (centres unmarked) [Example 7] | 1.33 | – | 250 to 500 | – | – | – | – | 50 to 100 | No inh^c | – | –
26 | CCN1C(=O)N(c2cc(Cl)cc(Cl)c2)C(=O)C1(C)Cc1ccccc1 (centres unmarked) [Example 89] | 0.29 | – | 500 | – | – | – | – | 50 | No inh^c | – | –
